# Results taken from US20120156216A1, “Methods and Compositions for Treatment of Tumor Metastasis” (priority 2009, published 2012).
# Experiments:
# [1] = general statement on statins; cited from earlier work
# [2] = tested on: radiation-induced CTGF in M12 prostate cancer cells; assay: Radiation-induced CTGF expression in M12 prostate cancer cells; format: cell-based, human; conditions: 1 μM, four days, FIG. 9A
# Source text: In an effort to determine the mechanism of radiation-induced adverse effects, such as radio-resistance and increased potential of metastasis in human cancer, M12 prostate cancer cells and BEAS-2B-CSC lung cancer cells were exposed to increasing amounts of radiation, ranging from 0 to 10 Grays (Gy). To detect protein expression for CTGF and CTGF-regulated protein fibronectin, M12 and BEAS-2B-CSC cells were harvested 3 days after irradiation, and culture media (CM) and cell lysates (CL) were separated by SDS-PAGE. Western immunoblotting was performed with antibodies specific for CTGF, fibronectin, and α-tubulin. […] As a control for protein loading, α-tubulin expression was also determined.
# The ability of statins to inhibit radiation-induced CTGF expression was assessed in M12 prostate cancer cells and BEAS-2B-CSC lung cancer cells.
# [3] = tested on: CTGF in M12 prostate cancer cells; assay: Suppression of endogenous CTGF by statins in M12 prostate cancer cells; format: cell-based, human; conditions: 1 μM, four days, FIG. 3A
# Source text: The effect of statins on the TGF-β- and CTGF-induced EMT in prostate cancer cells was further tested. Several stains are available with different pharmacokinetics and biotransformation rates. […] The hydrophilic statins are absorbed preferentially by the liver, where they inhibit production of cholesterol. More lipophilic statins are readily distributed to sites beyond the liver, where they inhibit intracellular synthesis of cholesterol. These different pharmacokinetic properties of statins may greatly influence effectiveness against advanced prostate cancer in vivo.
# [4] = tested on: CTGF in MDA 231 breast cancer cells; assay: Suppression of endogenous CTGF by statins in MDA 231 breast cancer cells; format: cell-based, human; conditions: 1 μM, four days, FIG. 3B
# [5] = tested on: CTGF and fibronectin in normal immortalized human lung fibroblasts; assay: Basal and TGF-β1-induced CTGF and fibronectin expression in stromal fibroblasts; format: cell-based
# [6] = tested on: EMT markers in M12 prostate cancer cells; assay: CTGF-induced (AdCTGF) EMT marker expression in M12 prostate cancer cells, RT-PCR and Western immunoblot; format: cell-based, human
# Source text: In order to identify direct effect of CTGF on EMT induction in human cancer, an adenoviral expression vector was used. M12 (FIGS. 5 A-B) and M2182 (FIGS. 5 C-D) prostate cancer cells were infected with either an empty adenoviral constructs or an adenoviral vector expressing CTGF (AdCTGF) for either 18 hrs or 2 days to collect total RNAs for RT-PCR (FIGS. 5 A and C) and proteins for Western immunoblot analysis (FIGS. 5 B and D), respectively.
# M12 (FIGS. 6 A-B) and M2182 (FIGS. 6 C-D) prostate cancer cells were infected with either an empty adenoviral construct (ADEV) or an adenoviral vector expressing CTGF (AdCTGF) for either 18 hrs or 2 days to collect total RNAs for RT-PCR (FIGS. 5 A and C) or proteins for Western immunoblot analysis (FIGS. 5 B and D), respectively.
# [7] = stromal cells treated with TGF-β1 0 ng/ml to 25 ng/ml, 3 days, Western immunoblot, FIG. 4A
Molecule,solubility (fat soluble or water soluble) [1],suppression of radiation-induced CTGF expression [2],suppression of CTGF [3],suppression of CTGF [4],other results
"CC(C)n1c(/C=C/[C@@H](O)C[C@@H](O)CC(=O)O)c(-c2ccc(F)cc2)c2ccccc21 (relative stereo) [fluvastatin, (3R,5S,6E)-rel-7-[3-(4-fluorophenyl)-1-(1-methylethyl)-1H-indol-2-yl]-3,5--dihydroxy-6-heptenoic acid]",more fat soluble,–,–,–,–
"CC[C@H](C)C(=O)O[C@H]1C[C@@H](C)C=C2C=C[C@H](C)[C@H](CC[C@@H]3C[C@@H](O)CC(=O)O3)[C@H]21 [lovastatin, 2(S)-2-methyl-butanoic acid (1S,3R,7S,8S,8aR)-1,2,3,7,8,8a-hexahydro-3,7-dimethyl-8-[2-[(2R,4R)-tetrahydro-4-hydroxy-6-oxo-2H-pyran-2-yl]ethyl]-1-na-phthalenyl ester]",more fat soluble,significant suppression,significant suppression,significant suppression,–
"CCC(C)C(=O)OC1CCC=C2C=C[C@H](C)[C@H](CC[C@@H]3CC(O)CC(=O)O3)[C@H]21 (stereo partly drawn) [mevastatin, ((1S,7S,8S,8aR)-8-{2-[(2R,4R)-4-hydroxy-6-oxotetrahydro-2H-pyran-2-yl]ethyl}-7-methyl-1,2,3,7,8,8a-hexahydronaphthalen-1-yl (2S)-2-methylbutanoate);]",more water soluble,–,–,–,–
CC[C@H](C)C(=O)O[C@H]1C[C@H](O)C=C2C=C[C@H](C)[C@H](CC[C@@H](O)C[C@@H](O)CC(=O)O)[C@H]21 [pravastatin],more water soluble,significant suppression,significant suppression,significant suppression,–
"CCC(C)(C)C(=O)O[C@H]1C[C@@H](C)C=C2C=C[C@H](C)[C@H](CC[C@@H]3C[C@@H](O)CC(=O)O3)[C@H]21 [simvastatin, 2,2-dimethyl-butanoic acid (1S,3R,7S,8S,8aR)-1,2,3,7,8,8a-hexahydro-3,7-dimethyl-8-[2-[(2R,4R)-tetrahydro-4-hydroxy-6-oxo-2H-pyran-2-yl]ethyl]-1-naphthalenyl ester]",–,–,significant suppression,significant suppression,"basal CTGF expression ([5]; stromal fibroblasts, simvastatin 0.1 μM to 2.0 μM, 20 hours, semi-quantitative RT-PCR, FIG. 4B): suppression; epithelial marker E-cadherin expression ([6]; M12 cells, AdCTGF, 5 μM simvastatin, mRNA level and protein level, FIGS. 6 A-B): increase; adenoviral transduced IGFBP-rP2/CTGF expression ([6]; prostate cancer cells, simvastatin at concentrations, 2 μM, 4 μM, 5 μM): did not affect"
"TGF-β1: transforming growth factor beta, potent inducer of CTGF, used to treat stromal fibroblasts",–,–,–,–,"production of CTGF ([5]; TGF-β1 at 10 ng/ml, FIG. 4A): robust production; expression of CTGF [5, 7]: significantly increased; expression of fibronectin [5, 7]: significantly increased"
